Data published in patent US8298582B2, “Polysaccharide-based impregnated solid material with improved stability, processes for the preparation thereof and impregnating solutions used” (Hydro-Quebec, priority 2006, dated 2012).

Tests used:
[1] = tested on: Gleophyllum trabeum; assay: Soil-block culture test, AWPA protocol E10-06, on leached treated wood blocks; assay type: cell-based; conditions: after 20 weeks of exposure, red pine sapwood blocks leached one week before the test
Protocol: (§1) Tests for evaluating the degradation-resistance of the wood according to various treatments were carried out by following AWPA protocol E10-06. These tests were carried out using two brown rots: Postia placenta and Gleophyllum trabeum.
(§2) These two preparations are used to treat blocks of 19 mm×19 mm×19 mm of red pine sapwood by means of a partial vacuum of −65 cmHg maintained for 30 minutes. This type of solution forms a gel in the cells of the wood after a period of one hour. In order to accelerate the crosslinking process and to allow drying, the blocks are heated overnight at 60° C.
(§3) In order to validate the capacity of our treatment to retain the boron in the wood and to play its role of wood-preserving agent, the treated blocks were soaked for one week in demineralized water in order to extract all traces of non-chelated boric acid or DOT.
(§4) After drying, the blocks were subjected to the laboratory “soil-block” culture test, strictly according to AWPA protocol E10-06.

[2] = tested on: Postia placenta; assay: as above; assay type: cell-based; conditions: after 20 weeks of exposure, red pine sapwood blocks leached one week before the test
Protocol: as §1, §2, §3, §4

[3] = Resistance to leaching, modified AWPA procedure E11-06 (5 faces protected); assay type: physicochemical
Protocol: This technique is based on AWPA protocol E11-06. The blocks are soaked in demineralized water at ambient temperature. Water samples are taken regularly and an analysis by ICP spectrometry is carried out (after dilution of the solution by a factor of 250) in order to evaluate the amount of boron present in the solution. The results are represented in FIGS. 5 and 5′.

- loss of boron ([3]; over a period of 8 days, red pine sapwood cubes): 67%
- loss of boron ([3]; over a period of 15 days): 32%
SMILES: OB(O)O [Boric acid, boric acid]
- Weight loss (%) Gleophyllum trabeum [1]: 67.5%
- Weight loss (%) Gleophyllum trabeum ([1]; listed as boric acid): substantial loss
- Weight loss (%) Postia placenta [2]: 67.5%
- Weight loss (%) Postia placenta ([2]; listed as boric acid): substantial loss
